Assay results from US20220235065A1 (Epizyme, Inc., priority 2016, published 2022).
Where a name gives a salt, the structure may show the parent alone.

Assays:
[1] = system: H3K9me2 in MDA-MB-231 cells; experiment: MDA-MB-231 H3K9me2 in-cell western assay; type: cell-based; conditions: Homo sapiens, read-out: EHMT2 ICW (IC50 μM)
Text: MDA-MB-231 cell line was purchased from ATCC (Manassas, Va., USA). RPMI/Glutamax medium, Penicillin-Streptomycin, Heat Inactivated Fetal Bovine Serum, and D-PBS were purchased from Life Technologies (Grand Island, N.Y., USA). Odyssey blocking buffer, 800CW goat anti-mouse IgG (H+L) antibody, and Licor Odyssey Infrared Scanner were purchased from Licor Biosciences, Lincoln, Nebr., USA. H3K9me2 mouse monoclonal antibody (Cat #1220) was purchased from Abcam (Cambridge, Mass., USA). 16% Paraformaldehyde was purchased from Electron Microscopy Sciences, Hatfield, Pa., USA). MDA-MB-231 cells were maintained in complete growth medium (RPMI supplemented with 10% v/v heat inactivated fetal bovine serum) and cultured at 37° C. under 5% CO2. UNC0638 was purchased from Sigma-Aldrich (St. Louis, Mo., USA).
General Procedure for MDA-MB-231 HEK9me2 In-Cell Western Assay.
Compound (100 nL) was added directly to 384-well cell plate. MDA-MB-231 cells (ATCC) were seeded in assay medium (RPMI/Glutamax supplemented with 10% v/v heat inactivated fetal bovine serum and 1% Penicillin/Streptomycin, Life Technologies) at a concentration of 3,000 cells per well to a Poly-D-Lysine coated 384-well cell culture plate with 50 μL per well. Plates were incubated at 37° C., 5% CO2 for 48 hours (BD Biosciences 356697). Plates were incubated at room temperature for 30 minutes and then incubated at 37° C., 5% CO2 for additional 48 hours. After the incubation, 50 μL per well of 8% paraformaldehyde (Electron Microscopy Sciences) in PBS was added to the plates and incubated at room temperature for 20 minutes. Plates were transferred to a Biotek 406 plate washer and washed 2 times with 100 μL per well of wash buffer (1×PBS containing 0.3% Triton X-100 (v/v)). Next, 60 μL per well of Odyssey blocking buffer (Licor Biosciences) was added to each plate and incubated for 1 hour at room temperature. Blocking buffer was removed and 20 μL of monoclonal primary antibody α-H3K9me2 (Abcam) diluted 1:800 in Odyssey buffer with 0.1% Tween 20 (v/v) were added and plates were incubated overnight (16 hours) at 4° C. Plates were washed 5 times with 100 μL per well of wash buffer. Next 20 μL per well of secondary antibody was added (1:500 800CW […] anti-mouse IgG (H+L) antibody (Licor Biosciences), 1:1000 DRAQ5 (Cell Signaling Technology) in Odyssey buffer with 0.1% Tween 20 (v/v)) and incubated for 1 hour at room temperature. The plates were washed 5 times with 100 μL per well wash buffer then 2 times with 100 μL per well of water. Plates were allowed to dry at room temperature then imaged on a Licor Odyssey Infrared Scanner (Licor Biosciences) which measured integrated intensity at 700 nm and 800 nm wavelengths. Both 700 and 800 channels were scanned.
% Inhibition Calculation.
First, the ratio for each well was determined by
Each plate included fourteen control wells of DMSO only treatment (Minimum Inhibition) as well as fourteen control wells (background wells) for maximum inhibition treated with control compound UNC0638 (Background wells).
The average of the ratio values for each well was calculated and used to determine the percent inhibition for each test well in the plate. Control compound was serially diluted three-fold in DMSO for a total of 10 test concentrations beginning at 1 μM. Percent inhibition was calculated as: […]
IC50 curves were generated using triplicate wells per concentration of compound. The IC50 is the concentration of compound at which measured methylation is inhibited by 50% as interpolated from the dose response curves. IC50 values were calculated using a non-linear regression (variable slope-four parameter fit model) with by the following formula
where Top is fixed at 100% and Bottom is fixed to 0%, [I]=concentration of inhibitor, IC50=half maximal inhibitory concentration and n=Hill Slope.

EHMT1 = target: T1, EHMT1 (Homo sapiens, UniProt Q9H9B1); experiment: EHMT1 PEP (EHMT1 peptide enzyme assay); type: biochemical; conditions: peptide substrate enzyme assay
T1 sequence (Q9H9B1 1-1298): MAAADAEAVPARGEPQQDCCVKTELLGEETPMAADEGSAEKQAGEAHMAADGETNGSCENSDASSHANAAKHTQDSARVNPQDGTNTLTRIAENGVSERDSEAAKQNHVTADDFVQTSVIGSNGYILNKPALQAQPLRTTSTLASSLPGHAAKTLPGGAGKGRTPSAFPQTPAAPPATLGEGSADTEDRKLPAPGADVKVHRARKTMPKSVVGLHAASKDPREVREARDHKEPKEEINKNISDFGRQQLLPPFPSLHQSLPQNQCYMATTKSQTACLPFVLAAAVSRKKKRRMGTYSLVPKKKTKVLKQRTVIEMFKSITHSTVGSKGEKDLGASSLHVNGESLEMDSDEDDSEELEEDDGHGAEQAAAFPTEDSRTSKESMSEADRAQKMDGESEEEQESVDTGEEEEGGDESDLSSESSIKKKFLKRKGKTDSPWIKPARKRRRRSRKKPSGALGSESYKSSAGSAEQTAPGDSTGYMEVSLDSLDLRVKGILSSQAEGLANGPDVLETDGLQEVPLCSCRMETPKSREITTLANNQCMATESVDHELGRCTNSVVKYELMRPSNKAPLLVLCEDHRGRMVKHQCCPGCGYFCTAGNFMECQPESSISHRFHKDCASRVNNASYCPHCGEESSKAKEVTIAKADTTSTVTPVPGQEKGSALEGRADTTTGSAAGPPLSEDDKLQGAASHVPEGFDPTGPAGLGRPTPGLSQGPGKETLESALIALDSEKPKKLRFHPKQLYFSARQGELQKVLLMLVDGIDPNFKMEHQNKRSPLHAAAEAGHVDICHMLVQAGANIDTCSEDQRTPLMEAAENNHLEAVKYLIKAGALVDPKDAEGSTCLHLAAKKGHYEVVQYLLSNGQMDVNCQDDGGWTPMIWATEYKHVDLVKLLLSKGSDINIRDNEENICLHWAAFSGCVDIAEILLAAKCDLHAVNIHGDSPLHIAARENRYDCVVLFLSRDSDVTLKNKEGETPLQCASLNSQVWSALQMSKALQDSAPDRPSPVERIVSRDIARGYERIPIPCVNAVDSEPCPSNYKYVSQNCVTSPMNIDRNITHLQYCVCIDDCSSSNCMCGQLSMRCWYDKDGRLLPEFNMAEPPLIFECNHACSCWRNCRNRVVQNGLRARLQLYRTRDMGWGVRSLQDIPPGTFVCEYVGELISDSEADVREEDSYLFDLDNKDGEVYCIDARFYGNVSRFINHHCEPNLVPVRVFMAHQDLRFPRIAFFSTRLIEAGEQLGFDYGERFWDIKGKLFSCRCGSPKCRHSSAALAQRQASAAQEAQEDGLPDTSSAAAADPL

| IC50 [1] [µM] | IC50 (EHMT1) [µM] | Compound |
| --- | --- | --- |
| > 10 | > 10 | CNc1cc(C)nc(Nc2ccc(OC)c(-c3cn4c(n3)CN(C)CC4)c2)n1 [Compound 6] |
| 1 to 10 | 0.1 to 1 | CNc1cc(C)nc(Nc2ccc(OC)c(-c3cn4c(n3)CNCC4)c2)n1 [Compound 7] |
| > 10 | 1 to 10 | CNc1cc(C)nc(Nc2ccc(OC)c(-c3nc4n(n3)CCNC4)c2)n1 [Compound 8, 2-N-(4-methoxy-3-[4H,5H,6H,7H-[1,2,4]triazolo[1,5-a]pyrazin-2-yl]phenyl)-4-N,6-dimethylpyrimidine-2,4-diamine hydrochloride] |
| > 10 | > 10 | CNc1cc(C)nc(Nc2ccc(OC)c(-c3nc4n(n3)CCN(C)C4)c2)n1 [Compound 9] |
| 0.1 to 1 | 0.1 to 1 | CNc1cc(C)nc(Nc2ccc(OC)c(-n3ncc4c3CCN(C)C4)c2)n1 [Compound 10] |
| > 10 | > 10 | CNc1cc(C)nc(Nc2ccc(OC)c(-c3nnc(C)[nH]3)c2)n1 [Compound 11] |
| > 10 | > 10 | CNc1cc(C)nc(Nc2ccc(OC)c(-c3cn[nH]c3)c2)n1 [Compound 12, 2-N-[4-methoxy-3-(1H-pyrazol-4-yl)phenyl]-4-N,6-dimethylpyrimidine-2,4-diamine] |
| 1 to 10 | 0.1 to 1 | CNc1cc(C)nc(Nc2ccc(OC)c(-n3cc4ccccc4n3)c2)n1 [Compound 146] |
| 1 to 10 | 0.1 to 1 | CNc1cc(C)nc(Nc2ccc(OC)c(-n3cc4cc(Br)ccc4n3)c2)n1 [Compound 148] |
| 0.1 to 1 | 0.1 to 1 | CNc1cc(C)nc(Nc2ccc(OC)c(-n3cc4cncc(C)c4n3)c2)n1 [Compound 151] |
| > 10 | > 10 | CNc1cc(C)nc(Nc2ccc(OC)c(-c3ccc4nc(C)[nH]c4c3)c2)n1 [Compound 155] |
| 1 to 10 | > 10 | CNc1cc(C)nc(Nc2ccc(OC)c(-c3ccc4cc(C)[nH]c4c3)c2)n1 [Compound 156] |
| 0.1 to 1 | < 0.1 | CNc1cc(C)nc(Nc2ccc(OC)c(-c3cc4ccncc4[nH]3)c2)n1 [Compound 157, N2-(4-methoxy-3-(1H-pyrrolo[2,3-c]pyridin-2-yl)phenyl)-N4,6-dimethylpyrimidine-2,4-diamine] |
| 0.1 to 1 | < 0.1 | CNc1cc(C)nc(Nc2ccc(OC)c(-c3cc4cnccc4n3C)c2)n1 [Compound 158] |
| 0.1 to 1 | < 0.1 | CNCc1cn(-c2cc(Nc3nc(C)cc(NC)n3)ccc2OC)nn1 [Compound 159, N2-(4-methoxy-3-(4-((methylamino)methyl)-1H-1,2,3-triazol-1-yl)phenyl)-N4,6-dimethylpyrimidine-2,4-diamine] |
| 0.1 to 1 | < 0.1 | CNc1cc(C)nc(Nc2ccc(OC)c(-n3cc(CN(C)C)c(C)n3)c2)n1 [Compound 160] |
| 1 to 10 | 1 to 10 | CNc1nc2cc(-n3cc(CN(C)C)nn3)c(OC)cc2n1C [Compound 163] |

| IC50 [1] [µM] | IC50 (EHMT1) [µM] | Compound |
| --- | --- | --- |
| 0.1 to 1 | 0.1 to 1 | CNc1cc(C)nc(Nc2ccc(OC)c(-n3cc(C(C)NC)nn3)c2)n1 (centres unmarked) [Compound 164] |
| > 10 | > 10 | CNc1cc(C)nc(Nc2ccc(OC)c(-n3cc(C(NC)C(F)(F)F)nn3)c2)n1 (centres unmarked) [Compound 165] |
| > 10 | 1 to 10 | CNc1cc(C)nc(Nc2ccc(OC)c(-n3cc(C(C)(C)NC)nn3)c2)n1 [Compound 166] |
| 0.1 to 1 | < 0.1 | CNc1ccnc(Nc2ccc(OC)c(-n3cnc(CN(C)C)c3)c2)n1 [Compound 170] |
| 0.1 to 1 | < 0.1 | CNc1ccnc(Nc2ccc(OC)c(-n3cc(CN(C)C)nn3)c2)n1 [Compound 171] |
| 1 to 10 | 0.1 to 1 | CCNCc1cn(-c2cc(Nc3nccc(NC)n3)ccc2OC)nn1 [Compound 172] |
| 1 to 10 | < 0.1 | CNc1ccnc(Nc2ccc(OC)c(-n3cc(CNCC4CC4)nn3)c2)n1 [Compound 173] |
| 1 to 10 | > 10 | CNc1ccnc(Nc2ccc(OC)c(-c3cc4[nH]ncc4cn3)c2)n1 [Compound 174] |
| 0.1 to 1 | < 0.1 | CNc1ccnc(Nc2ccc(OC)c(-c3cc4[nH]ccc4cn3)c2)n1 [Compound 175, N2-(4-methoxy-3-(1H-pyrrolo[3,2-c]pyridin-6-yl)phenyl)-N4-methylpyrimidine-2,4-diamine] |
| 1 to 10 | 0.1 to 1 | CNc1ccnc(Nc2ccc(OC)c(-n3cc(C4CC4)nn3)c2)n1 [Compound 176] |
| > 10 | 1 to 10 | CNc1ccnc(Nc2ccc(OC)c(-n3cc(C4COC4)nn3)c2)n1 [Compound 177] |
| > 10 | > 10 | CNc1ccnc(Nc2ccc(OC)c(-c3ccc4cc[nH]c4c3)c2)n1 [Compound 178] |
| 1 to 10 | 0.1 to 1 | CNCc1cnn(-c2cc3nc(NC)n(C)c3cc2OC)c1 [Compound 179] |
| 0.1 to 1 | < 0.1 | CNCc1cnn(-c2cc(Nc3nccc(NC)n3)ccc2OC)c1 [Compound 181, N2-(4-methoxy-3-(4-((methylamino)methyl)-1H-pyrazol-1-yl)phenyl)-N4-methylpyrimidine-2,4-diamine] |
| 1 to 10 | 0.1 to 1 | CNCc1cnn(-c2cc3nc(NC)cc(C4CCOCC4)c3cc2OC)c1 [Compound 184] |
| 1 to 10 | 0.1 to 1 | CCNCc1cnn(-c2cc(Nc3nccc(NC)n3)ccc2OC)c1 [Compound 185] |
| 0.1 to 1 | < 0.1 | CNCc1cnn(-c2cc3c(cc2OC)C2(CCC2)C(N)=N3)c1 [Compound 186] |
